# Assays:
# Type in all cases: in vivo
# [1] = test system: ORYZA SATIVA, L. TEBONNET; assay: Rice tolerance to post-transplant applications under flooded paddy conditions, ORYSAT (Rice, Tebonnet); conditions: for Herbicidal effect rating, ORYSAT: post-transplant rice, 3-4 weeks after treatment; for ORYSAT: post-transplanted rice
# Summary of the method: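 Post-transplant paddy test: compound applied 3 d after transplanting to flooded soil (1.5-3 cm water), ~0.063-0.5 kg/ha a.i., 50/50 aq/acetone. Silt loam, 2 × 10-d seedlings/pot. Greenhouse 3-4 wk, visual 0-9 score vs control.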
# [2] = test system: SETARIA VIRIDIS, (L) BEAU; assay: Postemergence herbicidal evaluation, SETVI (Foxtail, Green); set-up: key to SETVI rating / Herbicidal effect rating, SETVI / SETVI: 0-9 visual rating scale vs untreated control
# Summary of the method: (§1)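 Under usual greenhouse care after spraying, plants were examined four to five weeks on and given a 0–9 score relative to control. Application rate was about 0.125–0.500 kg/ha on ~two-week-old seedlings.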
# [3] = test system: CHENOPODIUM ALBUM, L.; assay: Postemergence herbicidal evaluation, CHEAL (Lambsquarters, Common)
# Summary of the method: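 Seedlings of common lambsquarters (Chenopodium album) were raised in jiffy flats for roughly two weeks, then sprayed postemergence through a nozzle at 40 psi with test compound dispersed in 50/50 acetone/water containing 0.5% TWEEN®20 surfactant. Plants were kept on greenhouse benches under standard care and rated visually on a 0-9 scale versus controls.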
# [4] = test system: IPOMOEA SPP.; assay: Postemergence herbicidal evaluation, IPOSS (Morningglory spp.)
# Summary of the method: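 Seedlings of morningglory (Ipomoea spp.) were raised in jiffy flats for roughly two weeks. They were then sprayed postemergence through a nozzle at 40 psi with test compound dispersed in 50/50 acetone/water containing 0.5% TWEEN®20 surfactant. Plants were kept on greenhouse benches under standard care and visually rated 0-9 against controls four to five weeks after treatment.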
# [5] = test system: AMBROSIA ARTEMISIIFOLIA, L.; assay: Postemergence herbicidal evaluation, AMBEL (Ragweed, Common);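 note: higher means more injury with 8 approaching complete kill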
# Summary of the method: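 Common ragweed (Ambrosia artemisiifolia) seedlings were raised in jiffy flats for roughly two weeks, then sprayed postemergence through a nozzle at 40 psi with the test compound dispersed in 50/50 acetone/water carrying 0.5% TWEEN®20. The plants were kept on greenhouse benches under conventional care. Four to five weeks later, injury was rated visually on a 0-9 scale, and repeat tests were averaged.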
# [6] = test system: ECHINOCHLOA CRUS-GALLI, (L) BEAU; assay: Postemergence herbicidal evaluation, ECHCG (Barnyardgrass); set-up: key to ECHCG rating / Herbicidal effect rating, ECHCG / ECHCG: 0-9 visual rating scale vs untreated control
# Summary of the method: as §1
# [7] = test system: TRITICUM AESTIVUM, CV. APOLLO; assay: Postemergence herbicidal evaluation, TRZAWO (Wheat, Winter, CV. APOLLO);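 note: higher means more injury with 8 approaching complete kill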
# Summary of the method: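 Wheat seedlings, raised in jiffy flats for roughly two weeks, were sprayed postemergence with test compound dispersed in a 50/50 acetone/water mixture containing 0.5% TWEEN®20 surfactant, delivered through a nozzle at 40 psi. Plants were then kept on greenhouse benches under conventional care. Four to five weeks after treatment they were rated visually on a 0-9 scale against an untreated control, and ratings from repeated tests were averaged.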
# [8] = test system: ZEA MAYS L.; assay: Postemergence herbicidal evaluation, ZEAMX (Corn, Field);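 note: higher means more injury with 8 approaching complete kill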
# Summary of the method: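 Corn seedlings were raised in jiffy flats for roughly two weeks, then sprayed postemergence with the test material dispersed in 50/50 acetone/water containing 0.5% TWEEN®20 surfactant, using a nozzle at 40 psi. Plants were kept on greenhouse benches under standard care and visually rated on a 0-9 scale four to five weeks after treatment.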
# [9] = test system: CASSIA OBTUSIFOLIA, L.; assay: Postemergence herbicidal evaluation, CASOB (Sicklepod); set-up: key to CASOB rating / Herbicidal effect rating, CASOB / CASOB: 0-9 visual rating scale vs untreated control
# Summary of the method: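 Visual 0–9 scores reflect stand, vigor, malformation, size, chlorosis and overall appearance relative to control, taken 4–5 weeks after spraying two-week-old seedlings with about 0.125–0.500 kg/ha compound in acetone/water/TWEEN 20.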
# [10] = test system: ABUTILON THEOPHRASTI, MEDIC.; assay: Postemergence herbicidal evaluation, ABUTH (Velvetleaf)
# Summary of the method: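 Velvetleaf (Abutilon theophrasti) seedlings were raised in jiffy flats for about two weeks and then sprayed postemergence. The test compound was dispersed in a 50/50 acetone/water mixture containing 0.5% TWEEN®20 and applied through a nozzle operating at 40 psi. Plants were kept on greenhouse benches and rated 0-9 four to five weeks after treatment.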
# [11] = test system: CHENOPODIUM ALBUM, L.; assay: Preemergence herbicidal evaluation, CHEAL (Lambsquarters, Common); conditions: for CHEAL herbicidal rating: rated four to five weeks after treatment
# Summary of the method: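 Greenhouse preemergence test; treated soil cups received compound in aqueous acetone (about 0.125 to 0.50 kg/ha) right after sowing and were assessed visually 4-5 weeks later on a 0-9 scale compared with control plants.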
structure (smiles),measurement,setting,value
"COC(=O)Cn1c(=O)n(C)c(=O)n(-c2cc(Oc3ccc(C(F)(F)F)cc3Cl)ccc2Cl)c1=O [Compound 39, Methyl 3-{[2-chloro-5-(2-chloro-α,α,α-trifluoro-p-tolyl)oxy]phenyl}tetrahydro-5-methyl-2,4,6-trioxo-s-triazine-1(2H)-acetate]","Herbicidal effect rating, ORYSAT",[1]; 0.063 kg/ha,2.5
same,"Herbicidal effect rating, ORYSAT",[1]; 0.125 kg/ha,3.5
same,"Herbicidal effect rating, ORYSAT",[1]; 0.250 kg/ha,5.0
same,"Herbicidal effect rating, ORYSAT",[1]; 0.500 kg/ha,5.3
same,ORYSAT,[1]; Rate 0.031 kg/ha,1.8
same,ORYSAT,[1]; Rate 0.063 kg/ha,2.5
same,ORYSAT,[1]; Rate 0.125 kg/ha,3.5
same,ORYSAT,[1]; Rate 0.250 kg/ha,5.0
same,SETVI,[2]; Rate 0.016 kg/ha,2.5
same,SETVI,[2]; Rate 0.032 kg/ha,4.5
same,SETVI,[2]; Rate 0.063 kg/ha,3.5
same,SETVI,[2]; Rate 0.125 kg/ha,4.5
same,SETVI,[2]; Rate 0.250 kg/ha,8.0
same,SETVI,[2]; Rate 0.500 kg/ha,9.0
same,CHEAL,[3]; Rate 0.016 kg/ha,6.0
same,CHEAL,[3]; Rate 0.032 kg/ha,8.0
same,CHEAL,[3]; Rate 0.063 kg/ha,9.0
same,CHEAL,[3]; Rate 0.125 kg/ha,9.0
same,CHEAL rating,[3]; Rate 0.125 kg/ha,9.0
same,CHEAL,[3]; Rate 0.250 kg/ha,9.0
same,CHEAL rating,[3]; Rate 0.250 kg/ha,9.0
same,CHEAL,[3]; Rate 0.500 kg/ha,9.0
same,CHEAL rating,[3]; Rate 0.500 kg/ha,9.0
same,IPOSS,[4]; Rate 0.016 kg/ha,5.5
same,IPOSS,[4]; Rate 0.032 kg/ha,7.0
same,IPOSS,[4]; Rate 0.063 kg/ha,9.0
same,IPOSS,[4]; Rate 0.125 kg/ha,9.0
same,IPOSS rating,[4]; Rate 0.125 kg/ha,9.0
same,IPOSS,[4]; Rate 0.250 kg/ha,9.0
same,IPOSS rating,[4]; Rate 0.250 kg/ha,9.0
same,IPOSS,[4]; Rate 0.500 kg/ha,9.0
same,IPOSS rating,[4]; Rate 0.500 kg/ha,9.0
same,AMBEL,[5]; Rate 0.016 kg/ha,4.5
same,AMBEL,[5]; Rate 0.032 kg/ha,6.5
same,AMBEL,[5]; Rate 0.063 kg/ha,7.5
same,AMBEL,[5]; Rate 0.125 kg/ha,8.5
same,AMBEL,[5]; Rate 0.250 kg/ha,9.0
same,AMBEL,[5]; Rate 0.500 kg/ha,9.0
same,ECHCG,[6]; Rate 0.016 kg/ha,1.5
same,ECHCG,[6]; Rate 0.032 kg/ha,3.0
same,ECHCG,[6]; Rate 0.063 kg/ha,1.0
same,ECHCG,[6]; Rate 0.125 kg/ha,4.5
same,ECHCG,[6]; Rate 0.250 kg/ha,7.5
same,ECHCG,[6]; Rate 0.500 kg/ha,8.0
same,TRZAWO,[7]; Rate 0.016 kg/ha,2.8
same,TRZAWO,[7]; Rate 0.032 kg/ha,3.8
same,TRZAWO,[7]; Rate 0.063 kg/ha,4.5
same,TRZAWO,[7]; Rate 0.125 kg/ha,4.8
same,TRZAWO,[7]; Rate 0.250 kg/ha,6.0
same,TRZAWO,[7]; Rate 0.500 kg/ha,5.5
same,ZEAMX,[8]; Rate 0.016 kg/ha,3.3
same,ZEAMX,[8]; Rate 0.032 kg/ha,4.3
same,ZEAMX,[8]; Rate 0.063 kg/ha,4.8
same,ZEAMX,[8]; Rate 0.125 kg/ha,6.5
same,ZEAMX,[8]; Rate 0.250 kg/ha,8.0
same,ZEAMX,[8]; Rate 0.500 kg/ha,8.5
same,CASOB,[9]; Rate 0.016 kg/ha,6.0
same,CASOB,[9]; Rate 0.032 kg/ha,9.0
same,CASOB,[9]; Rate 0.063 kg/ha,9.0
same,CASOB,[9]; Rate 0.125 kg/ha,9.0
same,CASOB rating,[9]; Rate 0.125 kg/ha,9.0
same,CASOB,[9]; Rate 0.250 kg/ha,9.0
same,CASOB rating,[9]; Rate 0.250 kg/ha,9.0
same,CASOB,[9]; Rate 0.500 kg/ha,9.0
same,CASOB rating,[9]; Rate 0.500 kg/ha,9.0
same,ABUTH,[10]; Rate 0.016 kg/ha,7.0
same,ABUTH,[10]; Rate 0.032 kg/ha,8.5
same,ABUTH,[10]; Rate 0.063 kg/ha,9.0
same,ABUTH,[10]; Rate 0.125 kg/ha,9.0
same,ABUTH rating,[10]; Rate 0.125 kg/ha,9.0
same,ABUTH,[10]; Rate 0.250 kg/ha,9.0
same,ABUTH rating,[10]; Rate 0.250 kg/ha,9.0
same,ABUTH,[10]; Rate 0.500 kg/ha,9.0
same,ABUTH rating,[10]; Rate 0.500 kg/ha,9.0
same,CHEAL,[11]; Rate 0.063 kg/ha,9.0
same,CHEAL,[11]; Rate 0.125 kg/ha,9.0
same,CHEAL herbicidal rating,[11]; Rate 0.125 kg/ha,9.0
same,CHEAL,[11]; Rate 0.250 kg/ha,9.0
same,CHEAL herbicidal rating,[11]; Rate 0.250 kg/ha,9.0
same,CHEAL,[11]; Rate 0.500 kg/ha,9.0
same,CHEAL herbicidal rating,[11]; Rate 0.500 kg/ha,9.0
